Assay type in all cases: cell-based
One experiment has as its system E. coli O6K5. Nature of the experiment: microbicidal activity MMC99%, E. coli O6K5 (Example 28). Particulars: E. coli O6K5 (Table 24). The essentials: (§1)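 Peptides serially diluted in 1% BHI were incubated with E. coli O6K5 or C. albicans (~1-5×10^5 cells/ml) for 2 h at 37 °C, then spotted on blood agar overnight. MMC99% was the peptide concentration causing 99% reduction of the inoculum.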

Another experiment relates to E. coli O14. Nature of the experiment: bactericidal activity against E. coli O14, comparison with EP-A-0 629 347 peptides (Example 7). As to conditions: E. coli O14, II: serial dilutions of twofold steps. The protocol: In this example an in vitro test was performed to compare the bactericidal and fungicidal activity of the peptides according to the invention with peptides described in EP-A-0 629 347. The peptide according to the invention used was peptide 4, and the peptides according to EP-A-0 629 347 called Morinaga 10, Morinaga 11, Morinaga 12, and Morinaga 13.
The peptides were incubated with E. coli O14 and Candida albicans. Two concentrations of C. albicans yeast cells were tested, 5·10^6 and 5·10^3 per ml. Different concentrations of the peptides were tested.
After the incubation, samples were taken for bacterial plating. Serial dilutions of tenfold steps were used in the experiments marked with I in table 5 and of twofold steps in the experiments marked with II.

In experiment [1] the test system is C. albicans. Nature of the experiment: microbe, parasite or virus in culture. On the procedure:
(§2) In the examples, the minimal microbicidal concentrations (MMC) and minimal inhibitory concentrations (MIC) were determined as follows, unless otherwise specified in the examples. Bacterial or fungal strains were cultured in BHI medium over night at 37° C. A volume of the culture was transferred to a new tube with BHI and incubated for two more hours. Thereafter the cells were spun down and the pellet was suspended in BHI medium diluted 1/100 (1% BHI). The concentration of bacterial or fungal cells was spectrophotometrically determined at 650 nm. The microbial concentrations were also determined by viable counts. Peptides serially diluted in 1% BHI by twofold or tenfold steps were added in triplicate to the wells of a microtiterplate (200 μl per well). The bacterial or fungal cell solutions were added in 10 μl volumes to give a final concentration of approximately 1-5×10^5 cells per ml in the well. The microplate was incubated at 37° C. in a humid chamber for two hours. Thereafter 5 μl was taken from each well and added as a drop onto a blood agar plate and incubated over night at 37° C. The microplate was incubated for another 20 hours at 37° C. and thereafter analysed spectrophotometrically at 650 nm in a microplate reader (Emax, Molecular Devices, USA). The concentration of peptide causing a 99% reduction of the inoculum after 2 hours of incubation was defined as the MMC99%. The MIC value was defined as the concentration giving no increase in the absorbance value above the background level after 20 hours of incubation.
Also in this example one of the peptides according to the invention—this time the peptide with SEQ. ID. NO. 4, was compared to a conventional fungicide, amphotericin. The antifungal activity against C. albicans was studied. Twofold serial dilutions with a starting concentration of 20 μg/ml were used. BHI diluted 1/100 was used as growth medium.

The test system of another experiment is C. neoformans. Nature of the experiment: fungicidal activity MMC99%, C. neoformans (Example 27). As to conditions: BHI diluted 1/100 (Table 23). On the procedure: as §2, with “The bacterial or fungal cell solutions were added in 10 μl volumes to give a final concentration of approximately 1-5×10^5 cells per ml in the well. The microplate was incubated at 37° C. in a humid chamber for two hours. Thereafter 5 μl was taken from each well and added as a drop onto a blood agar plate and incubated over night at 37° C.” left out, “The concentration of peptide causing a 99% reduction of the inoculum after 2 hours of incubation was defined as the MMC99%.” left out
In this example the fungicidal activity of three of the peptides according to the invention was studied, and tested against three different fungi. […] The concentration of each peptide needed to kill 99% of the fungi (MMC99%) was determined.

Experiment [2] relates to Candida albicans ATCC 64549. Nature of the experiment: fungicidal and growth inhibitory activity, Candida albicans ATCC 64549 (Example 8). On the procedure:
Candida albicans ATCC 64549 (1·10^5/ml) was incubated in the presence of the peptides during 2 hours at 37° C. in diluted growth medium (BHI, twofold serial dilutions starting with 50 μg/ml). The fungicidal activity was measured by culturing 5 μl from each incubation well on Saboroud agar plates.
The inhibition of growth was measured spectrophotometrically after 20 hours of incubation.

The next experiment has as its system multiresistant S. aureus. Nature of the experiment: bactericidal activity, multiresistant S. aureus (Example 18). Particulars: multiresistant S. aureus 5.0×10^5 per ml. On the procedure: In this example the bactericidal activity of two of the peptides according to the invention was studied in a test with a multiresistant S. aureus. A bacterial solution with a concentration of 5.0×10^5 S. aureus bacterial per ml was used. The concentration of each peptide needed to kill 99% of the bacteria (MMC99%) was determined after 2 hours and after 24 hours of incubation at 37° C.

Experiment [3] relates to C. albicans. Briefly: microbicidal activity MMC99%, C. albicans (Example 28). Particulars: C. albicans (Table 24). In a few lines: as §1
Experiment [4] concerns C. albicans. Nature of the experiment: fungicidal activity MMC99%, C. albicans (Example 27). As to conditions: BHI diluted 1/100 (Table 23). The protocol: as §2
(§3) In this example the fungicidal activity of three of the peptides according to the invention was studied, and tested against three different fungi. The fungi were incubated in BHI medium diluted 1/100. The concentration of each peptide needed to kill 99% of the fungi (MMC99%) was determined.

A further experiment has as its system C. glabrata. Briefly: fungicidal activity MMC99%, C. glabrata (Example 27). Particulars: BHI diluted 1/100 (Table 23). The protocol: as §2, §3

≈ marks a conversion by molar mass, not a printed value. Peptide text beside a SMILES is read from it. * marks the point of attachment. Acm = CC(=O)NC*

For `CC[C@H](C)[C@H](NC(=O)[C@H](CSCNC(C)=O)NC(=O)[C@H](CO)NC(=O)[C@@H](NC(=O)[C@@H]1CCCN1C(=O)[C@@H]1CCCN1C(=O)CNC(=O)[C@H](CCCNC(=N)N)NC(=O)[C@@H](NC(=O)[C@H](CCCCN)NC(=O)[C@H](CCCNC(=N)N)NC(=O)[C@H](CCSC)NC(=O)[C@H](CC(N)=O)NC(=O)[C@H](CCCNC(=N)N)NC(=O)[C@H](CCC(N)=O)NC(=O)[C@H](Cc1c[nH]c2ccccc12)NC(=O)[C@H](CCC(N)=O)NC(=O)[C@H](Cc1ccccc1)NC(=O)[C@H](CSCNC(C)=O)NC(=O)[C@H](CCCCN)NC(=O)[C@@H](NC(C)=O)[C@@H](C)O)C(C)C)C(C)C)C(=O)N[C@@H](CCCCN)C(=O)N[C@@H](CCCNC(=N)N)C(N)=O` [Peptide 4] (Ac-TKC(Acm)FQWQRNMRKVRGPPVSC(Acm)IKR-NH2), the MMC99% in the experiment on E. coli O6K5 is 20; in the experiment on C. albicans [1] (C. albicans, BHI diluted 1/100, twofold dilutions from 20 μg/ml) it was 5.0 µg/mL; with C. neoformans, “≦3.1”; in the experiment with multiresistant S. aureus (2 hours at 37° C.) it was 5.0 µg/mL; in the experiment with multiresistant S. aureus (24 hours at 37° C.), “≦0.32 μg/ml”; in the experiment with C. albicans [3] it was 5. Further, the MMC99% in the experiment with C. albicans [4] is 6.3; in the experiment on C. glabrata, more than 50. Also, the “Concentration of agent for 100% killing” value in the experiment with E. coli O14 was 12 µg/mL; in experiment [2] (C. albicans ATCC 64549 1·10^5/ml, 2 hours 37° C., diluted BHI) it was 6.2 µg/mL. For the same molecule, the MIC in the experiment with C. albicans [1] worked out at 5.0 µg/mL (≈ 1.67 µM). Moreover, the “Concentration of agent for inhibition of growth” value in experiment [2] (C. albicans ATCC 64549, spectrophotometrically after 20 hours) was 6.2 µg/mL.

The values are drawn from US7803757B2, “Peptides based on the sequence of human lactoferrin and their use” (PharmaSurgics in Sweden AB, priority 1998, dated 2010).
